Results from ChEMBL document CHEMBL4627310, “Design, synthesis and biological evaluation of 3-nitro-1,8-naphthalimides as potential antitumor agents” (Bioorg Med Chem Lett, 2020).

Key:
SMMC-7721 = experiment: Antiproliferative activity against human SMMC7721 cells assessed as cell growth inhibition measured after 48 hrs by MTT assay; type: functional, cell-based; conditions: SMMC-7721, 48 h
A549 = experiment: Antiproliferative activity against human A549 cells assessed as cell growth inhibition measured after 48 hrs by MTT assay; type: functional, cell-based; conditions: A549, 48 h
T-24 = experiment: Antiproliferative activity against human T24 cells assessed as cell growth inhibition measured after 48 hrs by MTT assay; type: functional, cell-based; conditions: T-24, 48 h
L02 = experiment: Cytotoxicity against human HL7702 cells assessed as cell growth inhibition measured after 48 hrs by MTT assay; type: cell-based; conditions: L02, 48 h
HepG2 = experiment: Antiproliferative activity against human HepG2 cells assessed as cell growth inhibition measured after 48 hrs by MTT assay; type: functional, cell-based; conditions: HepG2, 48 h
SK-OV-3 = experiment: Antiproliferative activity against human SKOV3 cells assessed as cell growth inhibition measured after 48 hrs by MTT assay; type: functional, cell-based; conditions: SK-OV-3, 48 h

Row | Structure (SMILES) | IC50 (SMMC-7721) | IC50 (A549) | IC50 (T-24) | IC50 (L02) | IC50 (HepG2) | IC50 (SK-OV-3)
1 | O=C1c2cccc3cc([N+](=O)[O-])cc(c23)C(=O)N1c1nc2ccccc2[nH]1 | 54.1 µM | 36.9 µM | 54.9 µM | > 100 µM | 50.4 µM | 60.5 µM
2 | CNCCCN1C(=O)c2cccc3cc([N+](=O)[O-])cc(c23)C1=O | 26.6 µM | 19.8 µM | 9.03 µM | 14.3 µM | 10.3 µM | 28.2 µM
